Three compounds from patent US20170112182A1 (Next Generation Labs, LLC, priority 2015, published 2017) can be followed below.

For test [1], the target named is α4β2 nAChRs (Homo sapiens, UniProt P17787+P43681). Type of test: cell-based.
In test [2] the target is α7 nAChRs (Homo sapiens, UniProt P36544). It is filed as cell-based.
The nature of test [3]: vaping study with 10 subjects rating throat feel and head feel dynamics. It is filed as in vivo, human. The source says: In rating the head feel dynamics and throat feel of the different compositions, the subjects used the following criteria: […]

α4β2 nAChRs, sequence (P43681 29-627 limits assumed): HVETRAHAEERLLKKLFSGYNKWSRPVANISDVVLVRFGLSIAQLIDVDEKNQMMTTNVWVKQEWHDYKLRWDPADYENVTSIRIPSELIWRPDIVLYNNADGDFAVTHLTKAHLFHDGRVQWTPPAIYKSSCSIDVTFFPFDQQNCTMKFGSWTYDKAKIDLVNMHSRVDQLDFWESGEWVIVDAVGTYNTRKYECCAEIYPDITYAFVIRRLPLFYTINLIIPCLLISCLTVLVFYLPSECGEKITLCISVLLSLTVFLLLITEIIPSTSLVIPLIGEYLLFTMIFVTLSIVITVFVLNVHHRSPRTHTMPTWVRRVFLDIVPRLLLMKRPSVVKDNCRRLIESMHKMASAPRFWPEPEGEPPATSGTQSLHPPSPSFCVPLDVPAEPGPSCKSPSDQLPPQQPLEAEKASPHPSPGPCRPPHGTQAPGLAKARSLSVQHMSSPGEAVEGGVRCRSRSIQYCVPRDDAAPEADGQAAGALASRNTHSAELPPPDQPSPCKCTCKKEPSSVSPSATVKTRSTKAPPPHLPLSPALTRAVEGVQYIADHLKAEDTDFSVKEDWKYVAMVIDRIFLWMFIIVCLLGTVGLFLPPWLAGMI
α4β2 nAChRs, sequence (P17787 26-502): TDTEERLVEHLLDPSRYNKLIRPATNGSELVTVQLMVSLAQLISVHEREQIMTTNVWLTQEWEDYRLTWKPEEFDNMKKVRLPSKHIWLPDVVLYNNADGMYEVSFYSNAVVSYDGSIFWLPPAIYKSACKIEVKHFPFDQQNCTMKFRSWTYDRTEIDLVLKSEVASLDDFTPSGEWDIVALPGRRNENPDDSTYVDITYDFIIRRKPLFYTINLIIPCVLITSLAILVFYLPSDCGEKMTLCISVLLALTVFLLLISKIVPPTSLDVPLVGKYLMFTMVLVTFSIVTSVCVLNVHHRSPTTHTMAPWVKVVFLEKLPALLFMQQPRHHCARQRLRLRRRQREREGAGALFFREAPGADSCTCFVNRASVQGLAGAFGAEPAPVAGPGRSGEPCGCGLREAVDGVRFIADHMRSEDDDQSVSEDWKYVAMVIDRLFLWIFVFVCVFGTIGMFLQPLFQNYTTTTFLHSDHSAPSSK
α7 nAChRs, sequence (P36544 23-502): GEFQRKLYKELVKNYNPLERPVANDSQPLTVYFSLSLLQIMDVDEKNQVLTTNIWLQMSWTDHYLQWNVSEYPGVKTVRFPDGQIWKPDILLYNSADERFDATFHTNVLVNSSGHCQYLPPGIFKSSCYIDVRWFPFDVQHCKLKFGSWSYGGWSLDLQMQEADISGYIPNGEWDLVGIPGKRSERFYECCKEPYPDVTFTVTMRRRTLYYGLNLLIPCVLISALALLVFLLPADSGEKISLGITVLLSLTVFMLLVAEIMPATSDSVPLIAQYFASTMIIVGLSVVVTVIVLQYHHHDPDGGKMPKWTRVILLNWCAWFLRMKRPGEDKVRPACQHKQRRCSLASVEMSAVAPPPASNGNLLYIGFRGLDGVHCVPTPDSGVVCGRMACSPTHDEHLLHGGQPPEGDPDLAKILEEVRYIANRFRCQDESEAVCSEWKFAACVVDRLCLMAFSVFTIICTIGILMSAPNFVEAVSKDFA

In the case of `CN1CCC[C@@H]1c1cccnc1` [Synthetic R nicotine, R nicotine], the “agonist character in words” value was “partial agonist” in test [1] and “full, weak agonist” in test [2].

For `CN1CCC[C@H]1c1cccnc1` [Synthetic S nicotine, S-nicotine], the “Head Feel Dynamics compared with tobacco-derived counterpart” value in test [3] (0.3% loading level) and in test [3] (0.6% loading level) was “same (within experimental error)” each time.

With `CN1CCCC1c1cccnc1` (racemic) [Synthetic RS racemic nicotine, RS-Nicotine], the “Head Feel Dynamics compared with tobacco-derived counterpart” value in test [3] (0.3% loading level) and in test [3] (0.6% loading level) was “slightly less effect” each time.
